Results reported in patent publication US11130769B2 (Prelude Therapeutics Incorporated, priority 2018, dated 2021).
Read-outs that look alike come from different tables or passages of the source.

Key:
[1] = test system: H929 cells; test: Cell viability assay (H929 10 FBS); type: cell-based; settings: read-out: H929_10FBS IC50
In short: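 ATP-based luminescence (CellTiter-Glo or ATPlite 1 Step, 30-60 min at RT) gauged viability of H929 myeloma cells after 24 h compound treatment at 37 °C. Cells plated at 4000 per well in 10% FBS RPMI 1640 supplemented with pyruvate, HEPES and glucose.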

[2] = molecular target: MCL-1 (Homo sapiens (Human), UniProt Q07820); test: Cell free Mcl-1:Bim affinity assay (fluorescence polarization competition); type: binding; settings: 15 nM MCL-1, 5 nM FITC-Bim, 1 hour at room temperature, read-out: BIM_Ki
Chain of MCL-1 (Q07820 whole entry): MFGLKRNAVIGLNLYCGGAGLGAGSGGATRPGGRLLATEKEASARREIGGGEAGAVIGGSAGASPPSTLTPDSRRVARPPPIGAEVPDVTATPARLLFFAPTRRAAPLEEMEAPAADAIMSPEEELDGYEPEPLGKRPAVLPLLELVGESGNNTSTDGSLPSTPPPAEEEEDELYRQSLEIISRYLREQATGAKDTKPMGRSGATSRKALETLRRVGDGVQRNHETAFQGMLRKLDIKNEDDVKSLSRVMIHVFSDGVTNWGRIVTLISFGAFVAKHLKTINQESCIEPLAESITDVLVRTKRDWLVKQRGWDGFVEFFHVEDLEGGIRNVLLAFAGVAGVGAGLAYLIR
In short: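 Fluorescence polarization competition: 10-point 3-fold compound dilutions displaced 5 nM FITC-Bim from 15 nM MCL-1 over 1 h at room temperature. Ki was derived from the fitted IC50 using the Nikolovska-Coleska equation, with percent inhibition normalized to DMSO and positive controls.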

[3] = Homo sapiens, NCI-H929, 24 hours

Row | Molecule | IC50 [1, 3] | Ki ([2]; class symbols) | IC50 ([1]; 24 hours) | Ki ([2]; numeric values)
1 | CN(C)C(=O)O[C@H]1/C=C\COC(C)(C)C(=O)NS(=O)(=O)c2ccc3c(c2)N(C[C@@H]2CC[C@H]21)C[C@@]1(CCCc2cc(Cl)ccc21)CO3 [Example 35, [(3R,6R,7S,8Z,22S)-6′-Chloro-12,12-dimethyl-13,15,15-trioxo-spiro[11,20-dioxa-15-thia-1,14-diazatetracyclo[14.7.2.03,6.019,24]pentacosa-8,16,18,24-tetraene-22,1′-tetralin]-7-yl] N,N-dimethylcarbamate] | > 1000 nM | 1 to 100 nM | – | –
2 | CC1(C)OC/C=C/[C@@H](OCCN2CCCC2)[C@@H]2CC[C@H]2CN2C[C@@]3(CCCc4cc(Cl)ccc43)COc3ccc(cc32)S(=O)(=O)NC1=O [Example 274, (3R,6R,7R,8E,22S)-6′-Chloro-12,12-dimethyl-15,15-dioxo-7-(2-pyrrolidin-1-ylethoxy)spiro[11,20-dioxa-15-thia-1,14-diazatetracyclo[14.7.2.03,6.019,24]pentacosa-8,16,18,24-tetraene-22,1′-tetralin]-13-one] | < 1000 nM | < 1 nM | – | –
3 | CN(C)C(=O)O[C@H]1/C=C/COC2(CCC2)C(=O)NS(=O)(=O)c2ccc3c(c2)N(C[C@@H]2CC[C@H]21)C[C@@]1(CCCc2cc(Cl)ccc21)CO3 [Example 231, [(3R,6R,7S,8E,22S)-7′-Chloro-12,12-(1,3-propylene)-13,15,15-trioxo-spiro[11,20-dioxa-15λ6-thia-1,14-diazatetracyclo[14.7.2.03,6.019,24]pentacosa-8,16,18,24-tetraene-22,4′-chromane]-7-yl] N,N-dimethyl-1-carboxylate] | < 500 nM | < 1 nM | – | –
4 | CN(C)C(=O)O[C@@H]1/C=C/COC2(CC2)C(=O)NS(=O)(=O)c2ccc3c(c2)N(C[C@@H]2CC[C@H]21)C[C@@]1(CCCc2cc(Cl)ccc21)CO3 [Example 39, [(3R,6R,7R,8E,22S)-6′-Chloro-12,12-ethylene-13,15,15-trioxo-spiro[11,20-dioxa-15-thia-1,14-diazatetracyclo[14.7.2.03,6.019,24]pentacosa-8,16,18,24-tetraene-22,1′-tetralin]-7-yl] N,N-dimethylcarbamate] | < 1000 nM | < 1 nM | – | –
5 | (4′Z,5′E)-6-Chloro-3,4-dihydro-2H-spiro[naphthalene-1,3′-13-thia-12-aza-1(5,7)-benzo[b][1,4]oxazepina-3(4,1)-pyrazolacyclotridecaphanen]-5′-en-11′-one 13′,13′-dioxide and (4′Z,5′Z)-6-chloro-3,4-dihydro-2H-spiro[naphthalene-1,3′-13-thia-12-aza-1(5,7)-benzo[b][1,4]oxazepina-3(4,1)-pyrazolacyclotridecaphanen]-5′-en-11′-one 13′,13′-dioxide [Example 11] | – | – | > 1000 nM | 503 nM
6 | CO[C@@H]1/C=C/CNC2(CCC2)C(=O)NS(=O)(=O)c2ccc3c(c2)N(C[C@@H]2CC[C@H]21)C[C@@]1(CCCc2cc(Cl)ccc21)CO3 [Example 116, (3R,6R,7R,8E,22S)-6′-Chloro-7-methoxy-12,12-(1,3-propylene)-15,15-dioxo-spiro[[20]oxa-15-thia-1,11,14-triazatetracyclo[14.7.2.03,6.019,24]pentacosa[8,16(25),17,19(24)]tetraene-22,1′-tetralin]-13-one] | < 1000 nM | 1 to 100 nM | – | –
7 | CN1C/C=C/[C@@H](O)[C@@H]2CC[C@H]2CN2C[C@@]3(CCCc4cc(Cl)ccc43)COc3ccc(cc32)S(=O)(=O)NC(=O)C12CCC2 [Example 138, (3R,6R,7R,8E,22S)-6′-Chloro-7-hydroxy-11-methyl-12,12-(1,3-propylene)-15,15-dioxo-spiro[20-oxa-15-thia-1,11,14-triazatetracyclo[14.7.2.03,6.019,24]pentacosa[8,16(25),17,19(24)]tetraene-22,1′-tetralin]-13-one] | < 1000 nM | 1 to 100 nM | – | –
8 | CN1C/C=C/[C@H](OC(=O)N2CCC2)[C@@H]2CC[C@H]2CN2C[C@@]3(CCCc4cc(Cl)ccc43)COc3ccc(cc32)S(=O)(=O)NC(=O)C1(C)C [Example 216, [(3R,6R,7S,8E,22S)-6′-Chloro-11,12,12-trimethyl-13,15,15-trioxo-spiro[20-oxa-15-thia-1,11,14-triazatetracyclo[14.7.2.03,6.019,24]pentacosa-8,16,18,24-tetraene-22,1′-tetralin]-7-yl]azetidine-1-carboxylate] | < 500 nM | < 1 nM | – | –
9 | CCOC1CN(C(=O)O[C@H]2/C=C/COC(C)(C)C(=O)NS(=O)(=O)c3ccc4c(c3)N(C[C@@H]3CC[C@H]32)C[C@@]2(CCCc3cc(Cl)ccc32)CO4)C1 [Example 57, [(3R,6R,7S,8E,22S)-6′-Chloro-12,12-dimethyl-13,15,15-trioxo-spiro[11,20-dioxa-15-thia-1,14-diazatetracyclo[14.7.2.03,6.019,24]pentacosa-8,16,18,24-tetraene-22,1′-tetralin]-7-yl] 3-ethoxyazetidine-1-carboxylate] | < 500 nM | < 1 nM | – | –
10 | COC1CN(C(=O)O[C@H]2/C=C/CN(C)C3(CCC3)C(=O)NS(=O)(=O)c3ccc4c(c3)N(C[C@@H]3CC[C@H]32)C[C@@]2(CCCc3cc(Cl)ccc32)CO4)C1 [Example 238, [(3R,6R,7S,8E,22S)-6′-Chloro-11-methyl-12,12-(1,3-propylene)-13,15,15-trioxo-spiro[20-oxa-15-thia-1,11,14-triazatetracyclo[14.7.2.03,6.019,24]pentacosa-8,16,18,24-tetraene-22,1′-tetralin]-7-yl] 3-methoxyazetidine-1-carboxylate] | < 500 nM | < 1 nM | – | –
11 | CN(C)C(=O)O[C@@]1(C)/C=C/COC(C)(C)C(=O)NS(=O)(=O)c2ccc3c(c2)N(C[C@@H]2CC[C@H]21)C[C@@]1(CCCc2cc(Cl)ccc21)CO3 [Example 293, [(3R,6R,7S,8E,22S)-6′-chloro-7,12,12-trimethyl-13,15,15-trioxo-spiro[11,20-dioxa-15-thia-1,14-diazatetracyclo[14.7.2.03,6.019,24]pentacosa-8,16,18,24-tetraene-22,1′-tetralin]-7-yl] N,N-dimethylcarbamate] | < 500 nM | < 1 nM | – | –
12 | CNC(=O)O[C@H]1/C=C/COC2(CC2)C(=O)NS(=O)(=O)c2ccc3c(c2)N(C[C@@H]2CC[C@H]21)C[C@@]1(CCCc2cc(Cl)ccc21)CO3 [Example 227, [(3R,6R,7S,8E,22S)-6′-Chloro-12,12-ethylene-13,15,15-trioxo-spiro[11,20-dioxa-15-thia-1,14-diazatetracyclo[14.7.2.03,6.019,24]pentacosa-8,16,18,24-tetraene-22,1′-tetralin]-7-yl] N-methylcarbamate] | < 500 nM | < 1 nM | – | –
13 | O=C1NS(=O)(=O)c2ccc3c(c2)N(C[C@@H]2CC[C@H]2[C@@H](O)/C=C/COC12CC2)C[C@@]1(CCCc2cc(Cl)ccc21)CO3 [Example 40, (3R,6R,7S,8E,22S)-6′-Chloro-7-hydroxy-12,12-ethylene-15,15-dioxo-spiro[11,20-dioxa-15-thia-1,14-diazatetracyclo[14.7.2.03,6.019,24]pentacosa[8,16(25),17,19(24)]tetraene-22,1′-tetralin]-13-one] | < 500 nM | < 1 nM | – | –
14 | CO[C@@H]1/C=C/CCC2(CCC2)C(=O)NS(=O)(=O)c2ccc3c(c2)N(C[C@@H]2CC[C@H]21)C[C@@]1(CCCc2cc(Cl)ccc21)CO3 [Example 86, (3R,6R,7R,8E,22S)-6′-Chloro-7-methoxy-12,12-(1,3-propylene)-15,15-dioxo-spiro[[20]oxa-15-thia-1,14-diazatetracyclo[14.7.2.03,6.019,24]pentacosa[8,16(25),17,19(24)]tetraene-22,1′-tetralin]-13-one] | > 1000 nM | 1 to 100 nM | – | –
15 | CC1(C)OC/C=C/[C@@H](OCCN2CCOCC2)[C@@H]2CC[C@H]2CN2C[C@@]3(CCCc4cc(Cl)ccc43)COc3ccc(cc32)S(=O)(=O)NC1=O [Example 271, (3R,6R,7R,8E,22S)-6′-Chloro-12,12-dimethyl-7-(2-morpholinoethoxy)-15,15-dioxo-spiro[11,20-dioxa-15-thia-1,14-diazatetracyclo[14.7.2.03,6.019,24]pentacosa-8,16,18,24-tetraene-22,1′-tetralin]-13-one] | < 500 nM | < 1 nM | – | –
16 | CC1(C)OC/C=C/[C@H](OC(=O)N2CCC(F)(F)C2)[C@@H]2CC[C@H]2CN2C[C@@]3(CCCc4cc(Cl)ccc43)COc3ccc(cc32)S(=O)(=O)NC1=O [Example 166, [(3R,6R,7S,8E,22S)-6′-Chloro-12,12-dimethyl-13,15,15-trioxo-spiro[11,20-dioxa-15-thia-1,14-diazatetracyclo[14.7.2.03,6.019,24]pentacosa-8,16,18,24-tetraene-22,1′-tetralin]-7-yl] 3,3-difluoropyrrolidine-1-carboxylate] | < 500 nM | < 1 nM | – | –
17 | COC1CN(C(=O)O[C@H]2/C=C/COC(C)(C)C(=O)NS(=O)(=O)c3ccc4c(c3)N(C[C@@H]3CC[C@H]32)C[C@@]2(CCCc3cc(Cl)ccc32)CO4)C1 [Example 56, [(3R,6R,7S,8E,22S)-6′-Chloro-12,12-dimethyl-13,15,15-trioxo-spiro[11,20-dioxa-15-thia-1,14-diazatetracyclo[14.7.2.03,6.019,24]pentacosa-8,16,18,24-tetraene-22,1′-tetralin]-7-yl] 3-methoxyazetidine-1-carboxylate] | < 500 nM | < 1 nM | – | –
